Laboratory results published in publication PMC8903829 (eLife, 2022).
pEC50: −log10 of the molar value. Read-outs that look alike come from different tables or passages of the source.

How the values were obtained:
[1] = test system: Scn8a^N1768D/+ mice; assay: Modified 6 Hz psychomotor seizure assay; format: in vivo, mouse
Method: (§1) Phenytoin was formulated in physiologic saline and was administered intraperitoneally (i.p.) using a 25-gauge needle at a dose volume of 10 mL/kg. All compounds were administered 2 hr prior to electrical seizure induction for all seizure models employed in this study.
Scn8a^N1768D/+heterozygous mice were tested at 5 weeks of age (p35). The modified 6 Hz seizure assay in Scn8a^N1768D/+heterozygous mice was adapted from the traditional 6 Hz assay psychomotor seizure assay to provide a measure of in vivo on target (NaV1.6 mediated) efficacy ([Barton et al., 2001]). The modified assay used a low frequency (6 Hz) but long-duration stimulation (3 s) to induce seizures. […] An electroshock (6 Hz, 12 mA) was delivered for 3 s (at 0.3-ms pulse interval) by corneal electrodes (Electro Convulsive Therapy Unit 57,800 from Ugo Basile). Immediately prior to the electroshock, the animals’ eyes were anesthetized with a drop of Alcaine (0.5% proparacaine hydrochloride).
An animal was considered protected in the assay upon prevention of GTC with hindlimb extension and was then scored ‘0’. An animal displaying GTC with hindlimb extension was considered not protected and is then scored ‘1’. The experimenter scoring the seizure behavior was blinded to the treatment.

[2] = test system: wild-type Sprague Dawley rats; assay: DC-Maximal electroshock seizure assay (DC-MES); format: in vivo, rat
Method: as §1
(§2) The maximal electroshock seizure (MES) assay has been extensively used in the search for anticonvulsant substances ([Löscher et al., 1991]; [Piredda et al., 1985]; [White et al., 1995]). The MES assay is sensitive to nonselective NaV inhibitors. It is considered a model for generalized tonic-clonic (GTC) seizures and provides an assessment of seizure spread. Briefly, an electroshock of direct current (DC) was delivered by corneal electrodes (Electro Convulsive Therapy Unit 57,800 from Ugo Basile). The parameters of stimulation were different between mice and rats. In CF1 mice aged 9–12 weeks, a direct current of 50 mA (60 Hz) was delivered for 0.2 s (pulse width of 0.5ms), whereas in Sprague Dawley (SD) rats aged 5–6 weeks, a direct current of 150 mA (60 Hz) was delivered for 0.3 s (pulse width of 0.5ms). Immediately prior to the electroshock, the animals’ eyes were anesthetized with a drop of Alcaine (0.5% proparacaine hydrochloride).
(§3) An animal was considered protected in the assay in the absence of a GTC with hindlimb extension and is then scored ‘0’. An animal displaying GTC with hindlimb extension was considered not protected and is then scored ‘1’. The experimenter scoring the seizure behavior was blinded to the treatment.

[3] = Bioanalytical assessment of plasma and brain concentrations after 6 Hz assay; format: in vivo, mouse
Method: (§4) Approximately 0.5 mL of blood was collected from each mouse at the end of the assay via cardiac puncture under deep anesthesia. The blood samples were collected in a syringe and transferred to tubes containing EDTA. Blood was stored at 4 °C until centrifuged within 30 min of collection. Plasma was harvested and placed on dry ice and stored in a freezer set to maintain a temperature of –70°C to –80°C until analysis. Brains were harvested immediately after blood collection and placed on dry ice prior to storage in a freezer set to maintain a temperature of –70°C to –80°C until analysis.
(§5) Extraction of plasma samples was carried out by protein precipitation using acetonitrile. Plasma samples (50 µL) were mixed with 50 µL of internal standard (IS) solution in water followed by addition of 10 µL of concentrated ortho-phosphoric acid and 200 µL of acetonitrile. Samples were vortexed for 30 seconds, centrifuged at 13,000 rpm for 20 min, decanted in to a 96-well plate, and further centrifuged at 4000 rpm for 20 min. The samples were analyzed by UHPLC-ESI-MS/MS as described below.
(§6) Prior to extraction, pre-weighed whole brains were homogenized in 1:1 acetonitrile/water (v/v) (4 mL per mouse brain) using an IKA T18 ULTRA-TURRAX Homogenizer at the setting of 4 for approximately 2 min. The homogenate was centrifuged at 13,000 rpm for 20 min and 50 µL of the supernatant were treated exactly as described above for plasma samples. […]
(§7) Samples were analyzed by UHPLC-ESI MS/MS using a TQ-5500 Sciex triple quadrupole mass spectrometer equipped with a Shimadzu Nexera UHPLC pump and auto-sampler system using an ACE C18 PFP, 2.50 × 50 mm, 1.7 µm particle size column and gradient elution consisting of solvent A (0.1% formic acid in water) and solvent B (0.1% formic acid in acetonitrile) starting at 20% B from 0 min to 0.4 min and then increased to 100% B from 0.4 min to 0.6 min. At 2.0 min, the mobile phase composition was switched back to […] for 1 min. The flow rate used throughout the experiment was […]. […] The UHPLC-ESI MS/MS system was controlled by Analyst 1.6.
(§8) Sample concentrations were determined using a linear calibration function, weighted 1 /X, generated by the regression of analyte to IS peak area ratios in the standard samples to their respective concentrations. Acceptance criteria for the analytical run required that the back calculated values of the standards and the QC samples fell within ±20% of their nominal values, except for the lowest standard or lower limit of quantitation (LLOQ), for which the acceptance criterion was ±25%. At least 6 out of 12 standard points had to show back-calculated values within ±20% of their nominal concentrations for the calibration to be accepted. At least three QC samples, one at each level, had to show back-calculated values within ±20% of their nominal concentrations for the whole sample batch to be valid.

[4] = Bioanalytical assessment of plasma and brain concentrations after rat DC-MES assay; format: in vivo; settings: Study18085, 2 mg/kg, Rat DC-MES
[5] = test system: wild-type mice (CF-1); assay: DC-Maximal electroshock seizure assay (DC-MES); format: in vivo, mouse
Method: as §1, §2, §3

[6] = test system: Sprague Dawley rats; assay: Observation of potential adverse behavior (behavioral signs) in the rat DC-MES studies; format: in vivo; settings: Sprague Dawley, rat, in vivo, 2 hr
Method: Animals were observed by the scientist(s) responsible for dosing for the first 30 min after dosing for and again at the time of assay (2 hr post dose) for signs of abnormal behavior.

[7] = Bioanalytical assessment of plasma and brain concentrations after mouse DC-MES assay; format: in vivo; settings: mouse, intraperitoneal, WT mouse DC-MES acute
Method: as §4, §5, §6, §7, §8

[8] = Study16042, 1 mg/kg, SCN8A mouse 6HZ
[9] = Study16042, 3 mg/kg, SCN8A mouse 6HZ
[10] = Study16042, 10 mg/kg, SCN8A mouse 6HZ
[11] = Study16042, 30 mg/kg, SCN8A mouse 6HZ
[12] = Study16042, 56 mg/kg, SCN8A mouse 6HZ
[13] = Study16189, 10 mg/kg, SCN8A mouse 6HZ
[14] = Study16189, 30 mg/kg, SCN8A mouse 6HZ
[15] = Study16202, 1 mg/kg, P75, SCN8A mouse 6HZ
[16] = Study16202, 3 mg/kg, P75, SCN8A mouse 6HZ

For O=C1NC(=O)C(c2ccccc2)(c2ccccc2)N1 [PHT], the “SCN8A mouse 6HZ Fraction of animals seizing” value (“SCN8A mouse 6HZ Fraction” for short) ([1]; Study16042, 1 mg/kg) was 1, the “SCN8A mouse 6HZ Fraction” value ([1]; Study16042, 3 mg/kg) was 0.75 and the “SCN8A mouse 6HZ Fraction” value ([1]; Study16042, 10 mg/kg) was 0.25. For the same compound, the “SCN8A mouse 6HZ Fraction” value ([1]; Study16042, 30 mg/kg) was 0, the “SCN8A mouse 6HZ Fraction” value ([1]; Study16042, 56 mg/kg) was 0 and the “SCN8A mouse 6HZ Fraction” value ([1]; Study16189, 10 mg/kg) was 0.15. The “SCN8A mouse 6HZ Fraction” value ([1]; Study16189, 30 mg/kg) was 0, the “SCN8A mouse 6HZ Fraction” value ([1]; Study16202, 1 mg/kg, P75) was 1 and the “SCN8A mouse 6HZ Fraction” value ([1]; Study16202, 3 mg/kg, P75) was 0.858. The “Rat DC-MES Fraction of animals seizing” value ([2]; Study18085, 2 mg/kg) was 0.667, the “Mean [Brain]” value [3, 8] was 2.665 µM and the “Mean [Palsma]” value [3, 8] was 1.798 µM. The “Mean [Brain]” value [3, 9] was 11.7685 µM, the “Mean [Palsma]” value [3, 9] was 7.584 µM and the “Mean [Brain]” value [3, 10] was 38.4981 µM. The “Mean [Palsma]” value [3, 10] was 32.6675 µM, the “Mean [Brain]” value [3, 11] was 120.646 µM and the “Mean [Palsma]” value [3, 11] was 92.6612 µM. The “Mean [Brain]” value [3, 12] was 109.171 µM, the “Mean [Palsma]” value [3, 12] was 127.343 µM and the “Mean [Brain]” value [3, 13] was 29.4623 µM. For the same compound, the “Mean [Palsma]” value [3, 13] was 26.0411 µM, the “Mean [Brain]” value [3, 14] was 76.4798 µM and the “Mean [Palsma]” value [3, 14] was 59.0466 µM. For the same compound, the “Mean [Brain]” value [3, 15] was 2.628 µM, the “Mean [Palsma]” value [3, 15] was 2.477 µM and the “Mean [Brain]” value [3, 16] was 7.154 µM. For the same compound, the “Mean [Palsma]” value [3, 16] was 7.163 µM, the “Mean [Brain]” value [4] was 1.841 µM and the “Mean [Palsma]” value [4] was 3.4567 µM.
In the case of O=C1NC(=O)C(c2ccccc2)(c2ccccc2)N1 [phenytoin, Phenytoin], the pEC50 ([1]; Mus musculus, Scn8a^N1768D/+ 6 Hz model, 2 hr post dose (oral; phenytoin i.p.), read-out: brain EC50) was 4.74, the “WT mouse DC-MES acute Fraction of animals seizing” value (shortened to “WT mouse DC-MES acute Fraction”) ([5]; Study16130, 5 mg/kg) was 0.5714 and the “WT mouse DC-MES acute Fraction” value ([5]; Study16130, 10 mg/kg) was 0. The “WT mouse DC-MES acute Fraction” value ([5]; Study17131, 2 mg/kg) was 0.6667, the “WT mouse DC-MES acute Fraction” value ([5]; Study17136, 2 mg/kg) was 0.7143 and the “WT mouse DC-MES acute Fraction” value ([5]; Study17136, 5 mg/kg) was 0.625. It also gave a pEC50 ([5]; WT mouse DC-MES, 2 hr post dose (oral; phenytoin i.p.), read-out: brain EC50) of 4.89, a pEC50 ([2]; WT rat DC-MES (oral; phenytoin i.p.), read-out: plasma EC50) of 5.35 and a pEC50 ([2]; WT rat DC-MES, 2 hr post dose (oral; phenytoin i.p.), read-out: brain EC50) of 5.59. The “minimal plasma concentration provoking behavioral signs (BSC)” value [6] was 11 µM, the concentration at 2 h ([7]; brain, 2 mg/kg, Study17131, 2 mg/kg, read-out: Mean [Brain]) was 6.12 µM and the concentration at 2 h ([7]; brain, 2 mg/kg, Study17136, 2 mg/kg, read-out: Mean [Brain]) was 3.6 µM. The concentration at 2 h ([7]; brain, 5 mg/kg, Study16130, 5 mg/kg, read-out: Mean [Brain]) was 17.9 µM, the concentration at 2 h ([7]; brain, 5 mg/kg, Study17136, 5 mg/kg, read-out: Mean [Brain]) was 10.9 µM and the concentration at 2 h ([7]; brain, 10 mg/kg, Study16130, 10 mg/kg, read-out: Mean [Brain]) was 38.3 µM. The concentration at 2 h ([7]; plasma, 2 mg/kg, Study17131, 2 mg/kg, read-out: Mean [Palsma]) was 3.42 µM, the concentration at 2 h ([7]; plasma, 2 mg/kg, Study17136, 2 mg/kg, read-out: Mean [Palsma]) was 3.65 µM and the concentration at 2 h ([7]; plasma, 5 mg/kg, Study16130, 5 mg/kg, read-out: Mean [Palsma]) was 16.1 µM. The concentration at 2 h ([7]; plasma, 5 mg/kg, Study17136, 5 mg/kg, read-out: Mean [Palsma]) was 11.5 µM and the concentration at 2 h ([7]; plasma, 10 mg/kg, Study16130, 10 mg/kg, read-out: Mean [Palsma]) was 30.7 µM.
